From patent US7709471B2, “Compounds” (AstraZeneca AB, priority 2006, dated 2010) come the findings set out here.

pIC50: −log10 of the molar value. Bounds are passed on as bounds.

In general, pIC50 refers to the IC50 on a negative log10 scale, so that one unit is a factor of ten.

This assay concerns human colon tumour cell line HT29. Description: Cellular Assay (phosphohistone H3 Ser10 mitotic marker, HT29). The class given is cell-based. The following applies: HT-29, 24 h, HT29 cells, read-out: IC50 (cellular assay, phosphohistone H3).

Experimental: Chromosome condensation in mitosis is accompanied by phosphorylation of histone H3 on serine 10.
After 24 hours, cells were fixed in 3.7% (v/v) formaldehyde then permeabilised and blocked for 10 minutes in 100 μl 0.5% (v/v) Triton X-100, 1% (w/v) bovine serum albumin (BSA) in phosphate buffered saline (PBS). […] The raw assay data were analysed by non-linear regression analysis and used to determine an IC50 value for each compound.

As for `COc1cc(C(=O)NCCN2CCCC2)ccc1Nc1ncc2c(n1)N(C(C)C)CC1(CC1)C(=O)N2C` [Example 312, 4-(9′-isopropyl-5′-methyl-6′-oxo-5′,6′,8′,9′-tetrahydrospiro[cyclopropane-1,7′-pyrimido[5,4-b][1,4]diazepine]-2′-ylamino)-3-methoxy-N-(2-(pyrrolidin-1-yl)ethyl)benzamide], the pIC50 was more than 6.52. On to `CCC1(CC)CN(C(C)C)c2nc(Nc3ccc(C(=O)NC4CCN(C)CC4)cc3OC)ncc2N(C)C1=O` [Example 304, 4-[(4,4-diethyl-6-methyl-5-oxo-2-propan-2-yl-2,6,9,11-tetrazabicyclo[5.4.0]undeca-7,9,11-trien-10-yl)amino]-3-methoxy-N-(1-methyl-4-piperidyl)benzamide], for which the pIC50 is more than 6.52. On to `COc1cc(C(=O)NC2CCC(N(C)C)CC2)c(Cl)cc1Nc1ncc2c(n1)N(C1CCCC1)CCC(=O)N2C` (stereo not shown) [Example 338, 2-chloro-4-[(2-cyclopentyl-6-methyl-5-oxo-2,6,9,11-tetrazabicyclo[5.4.0]undeca-7,9,11-trien-10-yl)amino]-N-(4-dimethylaminocyclohexyl)-5-methoxy-benzamide], for which the pIC50 is more than 6.52. As for `COc1cc(C(=O)NC2CCC(N(C)C)CC2)c(F)cc1Nc1ncc2c(n1)N(C1CCCC1)CC(C)(C)C(=O)N2C` (stereo not shown) [Example 372, 4-[(2-cyclopentyl-4,4,6-trimethyl-5-oxo-2,6,9,11-tetrazabicyclo[5.4.0]undeca-7,9,11-trien-10-yl)amino]-N-(4-dimethylaminocyclohexyl)-2-fluoro-5-methoxy-benzamide], the figure is more than 6.52; as for `COc1cc(C(=O)NCCN2CCCC2)c(F)cc1Nc1ncc2c(n1)N(C1CCCC1)CC1(CC1)C(=O)N2C` [Example 398, 4-(9′-cyclopentyl-5′-methyl-6′-oxo-5′,6′,8′,9′-tetrahydrospiro[cyclopropane-1,7′-pyrimido[5,4-b][1,4]diazepine]-2′-ylamino)-2-fluoro-5-methoxy-N-(2-pyrrolidin-1-ylethyl)benzamide], more than 6.52. To `COc1cc(C(=O)NC2CCNCC2)ccc1Nc1ncc2c(n1)N(C1CCCC1)CC(C)(C)C(=O)N2C` [Example 349, 4-[(2-cyclopentyl-4,4,6-trimethyl-5-oxo-2,6,9,11-tetrazabicyclo[5.4.0]undeca-7,9,11-trien-10-yl)amino]-3-methoxy-N-(4-piperidyl)benzamide] belongs more than 6.52. Take `CN1CCC(NC(=O)c2cc(Cl)c(Nc3ncc4c(n3)N(C3CCCC3)CC3(CC3)C(=O)N4C)cc2F)CC1` [Example 389, 5-chloro-4-(9′-cyclopentyl-5′-methyl-6′-oxo-5′,6′,8′,9′-tetrahydrospiro[cyclopropane-1,7′-pyrimido[5,4-b][1,4]diazepine]-2′-ylamino)-2-fluoro-N-(1-methyl-4-piperidyl)benzamide]: the negative-log IC50 (pIC50) was more than 6.52.

As to `COc1cc(C(=O)NC2CCC(N3CCC3)CC2)ccc1Nc1ncc2c(n1)N(C1CCCC1)CCC(=O)N2C` (stereo not shown) [Example 346, N-[4-(azetidin-1-yl)cyclohexyl]-4-[(2-cyclopentyl-6-methyl-5-oxo-2,6,9,11-tetrazabicyclo[5.4.0]undeca-7,9,11-trien-10-yl)amino]-3-methoxy-benzamide], the pIC50 is more than 6.52. With `COc1cc(C(=O)N[C@@H]2CCN(C)C2)ccc1Nc1ncc2c(n1)N(C1CCCCC1)CCC(=O)N2C` [Example 421, 4-[(2-cyclohexyl-6-methyl-5-oxo-2,6,9,11-tetrazabicyclo[5.4.0]undeca-7,9,11-trien-10-yl)amino]-3-methoxy-N-[(3R)-1-methylpyrrolidin-3-yl]benzamide], the pIC50 is more than 6.52. As for `COc1cc(C(=O)N[C@@H]2CCN(C)C2)c(Cl)cc1Nc1ncc2c(n1)N(C1CCCC1)CCC(=O)N2C` [Example 336, 2-chloro-4-[(2-cyclopentyl-6-methyl-5-oxo-2,6,9,11-tetrazabicyclo[5.4.0]undeca-7,9,11-trien-10-yl)amino]-5-methoxy-N-[(3R)-1-methylpyrrolidin-3-yl]benzamide], the figure is more than 6.52.
